The test system of series [1] is RNA expression in white visceral (intra-abdominal) adipose tissue. Description: Real-time RT-PCR of RNA expression in white visceral adipose tissue of treated DKO mice. Format: in vivo, mouse. Here is the method:
(§1) Homozygous LDL-receptor-knockout mice (LDLR^(−/−)), heterozygous ob/+, and C57BL6 mice were purchased from Jackson Laboratory, Bar Harbor, Me. LDLR^(−/−) mice were backcrossed into a C57BL6 background to the 10th generation. To obtain DKO mice with combined leptin deficiency (ob/ob) and LDL-receptor deficiency, LDLR^(−/−) and ob/+ mice were crossed. All offspring were genotyped by polymerase chain reaction (PCR) techniques. All mice were housed at 22° C. on a fixed 12/12-hour light/dark cycle. Experimental procedures in animals were performed in accordance with protocols approved by the Institutional Animal Care and Research Advisory Committee. All mice were fed standard chow containing 4% fat (Pavan Service). Food intake was ≈5.7 g/d. Mice (about 50 g) were treated with stevioside (N=14; 10 mg/kg), steviol (N=9; 5 mg/kg) or placebo (N=17) for 12 weeks between 12 and 24 weeks of age. Stevioside (Molecular weight: 804) was dissolved in water (1 mg/ml) and 500 μl of the solution was administered orally. Steviol (Molecular weight: 318) was dissolved in water containing 6% NaHCO3 (1 mg/ml) and 250 μl of the solution was administered orally.
The level of RNA expression in extracts of white visceral (intra-abdominal) adipose tissue and aortic arch was measured by real-time reverse transcription (RT)-PCR. Total RNA was extracted with the Trizol reagent (InVitrogen) and purified on an RNeasy kit column (Qiagen). First-strand cDNA was generated from total RNA by RT using random primers from Takara and Superscript III reverse transcriptase (InVitrogen). Quantitative real-time PCR was performed using SybrGreen master mix according to the supplier protocols (Applied Biosystems).). Oligonucleotides (InVitrogen) used as forward primer (F) and reverse primer (R) were: for mouse PPARalpha: F: 5′-[…]-3′; R: 5′-[…]-3′; for mouse PPARgamma: F: 5′-[…]-3′; R: 5′-GTCAGCGGGTGGGACTTTC-3′; for mouse FABP4: F: 5′-AACTGGGCGTGGAATTCG-3′; R: 5′-[…]-3′; for mouse iNOS: F: 5′-[…]-3′; R: 5′-[…]-3′; for mouse GLUT-4: F: 5′-[…]-3′; R: 5′-[…]-3′; for mouse IRS-1: F: 5′-[…]-3′; R: 5′-CGCCTCGGGAAGAGACAGT-3′; for mouse IRS-2: F: 5′-[…]-3′: R: 5′-[…]-3′; for mouse LXRalpha: F: 5′-[…]-3′; R: 5′-[…]-3′; for mouse SOD1: F: 5′-[…]-3′; R: 5′-[…]-3′; for mouse SOD2: F: 5′-TCGGTGGCGTTGAGATTGT; R: 5′-[…]-3′; for mouse SOD3: F: 5′-[…]-3′; R: 5′-GCTGCCGGAAGAGAACCAA-3′; and for mouse β-actin (housekeeping gene), F: 5′-[…]-3′; R: 5′-[…]-3′. The level of mRNA expression was calculated using the threshold cycle (Ct) value, i.e., the number of PCR cycles at which the fluorescent signal during the PCR reaches a fixed threshold. For each sample, the Ct both for the gene of interest and for the housekeeping gene β-actin were determined to calculate ΔCt,sample (Ct,target gene−Ct,housekeeping gene), thus normalizing the data and correcting for differences in amount and/or quality between the different RNA samples. The expression levels were related to an external calibrator consisting of intra-abdominal adipose tissue from C57BL6 control mice. Subsequently, ΔΔCt (ΔCt,sample−ΔCt,calibrator) was determined, and the relative expression levels were calculated from 2^−ΔΔCt according to the manufacturer's instructions (Applied Biosystems). RNA expression levels are thus indicated as arbitrary units ±SD
A general note: Real-time PCR tracks product formation cycle by cycle.

Series [2] deals with everted gastrointestinal sacs of rats and Caco-2 cell layers. The settings on record: everted gastrointestinal sacs of rats, Caco-2 cell layers; cited from earlier work.
Series [3] has as its system atherosclerotic plaques of DKO mice. Description: Atherosclerosis: morphometric and immunohistochemical analysis of aortic root cross sections of DKO mice. Format: in vivo, mouse. The conditions noted are these: stevioside 10 mg/kg or steviol 5 mg/kg orally, 12 weeks. Here is the method:
as §1
The extent of atherosclerosis was determined by analysis of cross sections from the aortic root. Approximately ten 7-μm frozen sections per staining per animal were used for morphometric and immunohistochemical analysis. Total plaque areas were measured on hematoxylin and eosin stained sections. Lipids were stained with oil-red O, and macrophage areas were stained with an antibody against mouse Mac-3 antigen (Pharmingen), and oxidized LDL with the monoclonal antibody 4E6. Blinded analysis of positive immunostained sections was performed with the Quantimet600 image analyzer (Leica).

Another series deals with bacteria of the colon. The conditions noted are these: cited from earlier work.
Setting [4] is: adipose tissue, stevioside 10 mg/kg orally, 12 weeks.
Where [5] appears, read: adipose tissue, treatment with stevioside.

In the case of `C=C1C[C@@]23CC[C@H]4C(C)(CCC[C@@]4(C)C(=O)O[C@@H]4O[C@H](CO)C(O)[C@H](O)C4O)[C@@H]2CCC1(OC1O[C@H](CO)C(O)C(O)C1OC1O[C@H](CO)C(O)[C@H](O)C1O)C3` (stereo in doubt) [stevioside, Kaur-16-en-18-oic acid, 13-[(2-O-b-D-glucopyranosyl-b-D-glucopyranosyl)oxy]-, b-D-glucopyranosyl ester, (4a)-], in series [1] (adipose tissue of stevioside-treated mice), the LPL expression entry is reported as “not associated with a change”. Further, in series [1] (setting [4]), the “expression of FABP-4” value is given as “increased expression”, the “expression of GLUT-4” value is recorded as “increased expression”, the “expression of IRS-1” value was “increased expression” and the “expression of IRS-2” value is recorded as “increased expression”. Further, in series [1] (setting [4]), the “expression of LXRalpha” value is listed as “increased expression”, the “expression of PPARalpha” value is listed as “increased expression”, the “expression of PPARgamma” value is given as “increased expression” and the “expression of the antioxidant SOD3” value was “increased expression”. For the same compound, in series [1] (setting [5]), the “expression of CD36” value was “increased expression”, the expression of catalase entry was “increased expression” and the “expression of the insulin receptor (INSR)” value is listed as “increased expression”. Moreover, the “uptake by the intestinal tract” value in series [2] is on record as “extremely low”. Further, in series [3], the “lipid deposition in plaques” value is listed as “reducing”, the “macrophage deposition in plaques” value was “reducing”, the “oxLDL deposition in plaques” value is “reducing” and the plaque volume entry is “lowered”. Besides, the “smooth muscle cell (SMC)-to-macrophage ratio (proxy for plaque stability)” value in series [3] is “increased”. Further, in the series with bacteria of the colon, the “degradation by bacteria of the colon” value was “degraded”.

The record behind these values is patent US20100099640A1, “TISSUE DEGENERATION PROTECTION” (priority 2007, published 2010).
